Test results: patent publication US6630478B2, “Methods for treatment of drug-induced peripheral neuropathy” (NeoTherapeutics, Inc., priority 2000, dated 2003)
“Also recorded” adds a separate entry of the source.

Experiments:
[1] = tested on: dorsal root ganglion neurons; assay: Cisplatin toxicity in cultured dorsal root ganglion neurons, survival rate by acid phosphatase activity; type: cell-based, rat
Method: The dorsal root ganglion neurons were obtained from rat fetuses (Wistar rats; E15; Elevage Janvier, Le Genest St Isle). They were dissected and incubated in trypsin 1× (Gibco; Life Technologies, Cergy-Pontoise, France) for 30 min at 37° C. The reaction was stopped by addition of free Hanks balanced salt solution containing calcium and magnesium; (HBSS^+; Gibco) added with 10% of fetal bovine serum (FBS; Gibco) and 0.5 mg/ml DNAse I (Boehringer Mannheim, Meylan, France). The suspension was triturated with a 10-ml pipette and using a needle seringe. After centrifugation, the dissociated cells were resuspended in DMEM containing 10% FBS, 2% of chick embryos extract (Gibco), 1% antibiotics (Gibco) and NGF (Tebu, Le Perray en Yvelines, France) 3 ng/ml final.
Viable cells were counted and seeded at ±50,000 cells /well in 96 well-plates (Nunclon, Life Technologies) coated with poly-L-lysine (0.01 mg/ml, Sigma). Cells were maintained in a humidified incubator at 37° C. in 5% CO2-95% air atmosphere.
After 24 h, the culture medium was completed with anti-mitotic compounds (5-fluoro-5′-deoxyuridine and cytosine β-D-arabinofuranoside) and uridine all 10^−5M final. This treatment is aimed at eliminating contaminating fibroblasts and inhibiting the proliferation of Schwann cells.
Cultures were rinsed 48 hrs later (medium without any growth factors) and medium was replaced with fresh medium (200 μl /well) containing cisplatin (3.5 ng/ml; Sigma) added or not with the reference or test compounds.
After 48 h of intoxication, survival rates were measured using an acid phosphatase enzymatic activity assay.
Acid phosphatase activity was measured according to a previously described method (Ueda et al.; 1994). After removal of the culture medium, wells were rinsed twice with PBS (Life Technologies) and incubated with 100 μl of buffer containing 0.1 M sodium acetate (pH5.5), 0.1% Triton X100 (Sigma) and 10 mM p-nitrophenyl phosphate (Sigma) 1 h at 37° C./5% CO2. Reaction was stopped by addition of 10 μl of 1N NaOH (LPCR, Strasbourg, France). Enzyme activity was measured at 405 nm in a microplate reader (Labsystem, France).
Acid phosphatase activity is proportional to the amount of living cells. The results were expressed as percentage O.D. as compared to control conditions (same rinsing and medium replacements, but no intoxication and no treatment with either NGF, riluzol or the test compounds).

[2] = tested on: basic fibroblast growth factor (bFGF); conditions: rat astrocyte cultures; cited from earlier work
axonal regeneration = assay: Axonal regeneration after nerve crush; conditions: in vivo
Description: (§1) More specifically, as detailed below in the Example, systematically administered AIT-082 closely mimics the effects both of increased levels of endogenous NGF, and of exogenous NGF. […] The growth of such nerve tissue is evoked and maintained entirely by the increased levels of NGF in adjacent denervated skin.

[3] = tested on: peripheral nerve sprouting in the skin; assay: Peripheral (collateral) nerve sprouting in the skin; type: in vivo; conditions: systemically administered, skin of adult rats
Description: (§2) The growth of such nerve tissue is evoked and maintained entirely by the increased levels of NGF in adjacent denervated skin.

neurotrophin 3 (NT-3) = conditions: rat astrocyte cultures; cited from earlier work
NGF [4] = conditions: astrocytes; cited from earlier work
[5] = Induction of hyperalgesia; design: species or system adult rats; conditions: rat, in vivo
Description: as §2

BDNF = BDNF content in spinal cord by ELISA; type: in vivo, rat; conditions: in drinking water for 7 days
Method: In vivo Effects on Expression and Secretion of Nerve Growth Factors: In attempt to further explore the effects of AIT-082 that could be beneficial for chemotherapy-induced neuropathy, additional studies were conducted on dose-related effects on BDNF levels in the spinal cord. In these studies, AIT-082 was administered in drinking water for 7 days and BDNF content was measured by ELISA assay.

NGF [6] = conditions: rat astrocyte cultures; cited from earlier work
S 100 = conditions: astrocytes; cited from earlier work
[7] = tested on: gastrocnemius muscle after stimulation of the sciatic nerve; assay: Vincristine-induced neuropathy, EMG amplitude (compound muscle action potential); type: in vivo, Dark Agouti rats
Method: (§3) Animals received vincristine 0.15 mg/ml (IP) per day with the following timing: 5 days of intoxication followed with 2 days without vincristine injection and a new period of 5 days of intox followed with 2 days no intoxication and 2 other days of intoxication with vincristine followed by a 3 week recovery period. The test compound was administered daily from the first day of vincristine injection to the end of the experiments
(§4) Subjects used were 65 female Dark Agouti rats (200-250 g) (n=13 per group). Five groups were used: (1) a vehicle control group; (2) a vincristine-vehicle group;: (3) a vicristine+AIT-082 3 mg/kg IP group; (4) a vicristine+AIT-082 10 mg/kg IP group; and (5) a vicristine+AIT-082 30 mg/kg IP group.
(§5) Electrophysiological Measurements. Electrophysiological recordings were performed once a week using a Neuromatic 2000M electromyographical apparatus (Dantec, France). EMG were performed under Ketamine anesthesia (Imalgène 500®, Merieux, France).
(§6) The measured parameters were: the sensitive nerve conduction velocity (SNCV), the amplitude and the latency compound muscle action potential (CMAP).
Compound Muscle Action Potential and Distal Latency. CPAM was measured in gastrocnemius muscle after stimulation of the sciatic nerve. […] The amplitude (mV) and the latency of the response (ms) are measured. […]

NGF [8] = assay: Endogenous NGF levels in skin; design: species or system adult rats; conditions: rat, in vivo
Description: as §1

TGF = conditions: astrocytes; cited from earlier work
Caudal nerve = assay: Vincristine-induced neuropathy, sensitive nerve conduction velocity (SNCV); type: in vivo, Dark Agouti rats
Method: as §3, §4, §5, §6
Sensitive Nerve Conduction Velocity. Skin electrodes were used. Caudal nerve was stimulated with a series of 20 pulses during 0.2 ms at a supramaximal intensity. The mean of 20 stimulations is included for statistical analysis.
Drug Administration. The test compound was administered daily by the i.p. route from the first day of intoxication with the vincristine to the end of the experiments.

sciatic nerve = assay: Vincristine-induced neuropathy, morphometric analysis of sciatic nerve; type: in vivo, Dark Agouti rats; conditions: end of the treatment periods
Method: as §3, §4
Morphometric Analysis. The morphometric analysis was performed on 3 animals per group on sciatic nerve. It includes the measurements of various parameters according to the following procedure: […]
(3) Morphometric analysis: Sections were observed using an optical microscope (Nikon) and morphometric analysis were performed with a semi-automated digital image analysis software (Morphonerf, Alcatel). Per slice, 4 fields were analyzed, the number of myelinated fibers, density of fibers, diameter of fibers, thickness of myelin sheath, surface of myelin sheath and G factor.

[9] = Clinical trials, safety in patients; type: in vivo; conditions: over 1400 patients
Description: The objectives of the studies described in this application are to evaluate AIT-082 and related analogues for their potential utility in the treatment of neuropathies associated with oncolytic therapies. The prototypic compound, AIT-082, is currently in Phase 2 clinical trials for Alzheimer's disease (AD) and has been proven safe in over 1400 patients. Its preclinical pharmacological effects include neuroprotection against excitotoxicity, induction of the synthesis and secretion of neurotrophic and pleiotrophic factors, neuroregenerative effects and proliferative effects on neural progenitor cells. The effects of AIT-082 are unlike any product that has been approved or is currently under evaluation for neuropathies associated with oncolytic agents. AIT-082 and its second generation analogues may arrest or retard neurodegenerative processes, promote neuroregeneration and provide symptomatic relief for cancer patients with neuropathies or at high risk of developing neuropathies.

[10] = Vincristine intoxication in rats, body weight; type: in vivo, Dark Agouti rats; conditions: repetitive dosing IP, days 11-19 and 22-31; FIG. 2
Method: Animals received vincristine 0.15 mg/ml (IP) per day with the following timing: 5 days of intoxication followed with 2 days without vincristine injection and a new period of 5 days of intox followed with 2 days no intoxication and 2 other days of intoxication with vincristine followed by a 3 week recovery period. The test compound was administered daily from the first day of vincristine injection to the end of the experiments Subjects used were 65 female Dark Agouti rats (200-250 g) (n=13 per group). Five groups were used: (1) a vehicle control group; […] (3) a […]-082 3 mg/kg IP group; (4) a […]-082 10 mg/kg IP group; and (5) a […]-082 30 mg/kg IP group. Behavioral Measurements. The general health and weight of animals were checked every day. Sensorimotor tests were performed twice a week during 6 week study, starting one week before beginning of intoxication (baseline). Drug Administration. The test compound was administered daily by the i.p. route from the first day of intoxication with the vincristine to the end of the experiments.

[11] = prevention of cisplatin toxicity in DRG cells

For `O=C(CCn1cnc2c(=O)[nH]cnc21)NCCCN1CCCC1=O` [AIT-034], the effect on survival ([1]; all concentrations (0.01-100 μM)) was “ineffective”.
In the case of `O=C(CCn1cnc2c(=O)[nH]cnc21)Nc1ccc(C(=O)O)cc1` [AIT-082, N-4-carboxyphenyl-3-(6-oxohydropurin-9-yl) propanamide], the “production of bFGF mRNA” value [2] is given as “increases the production of mRNAs”, the “axonal regeneration after nerve crush” value (axonal regeneration) is given as “no effect” and the “peripheral / collateral nerve sprouting” value [3] is given as “induce peripheral nerve sprouting; also recorded: induces vigorous collateral sprouting”. For the same compound, the “production of NT-3 mRNA” value (neurotrophin 3 (NT-3)) was “increases the production of mRNAs”, the “secretion of NGF into the culture medium” value (NGF [4]) was “enhanced the secretion” and the hyperalgesia [5] was “without the induction of hyperalgesia; also recorded: did not induce hyperalgesia”. For the same compound, the “BDNF levels in the spinal cord” value (BDNF) was “significant dose-related increases”, the “production of NGF mRNA” value (NGF [6]) was “increases the production of mRNAs” and the “secretion of S 100 into the culture medium” value (S 100) was “enhanced the secretion”. The EMG amplitude ([7]; days 17 and 23 (intoxication phase), days 31 and 38 (recovery phase), 3-30 mg/kg IP) was “significant and dose-related changes”, the “severity of vincristine induced changes in electromyographic responses” value ([7]; discussion summary) was “reduced the severity” and the “endogenous NGF levels in skin” value (NGF [8]) was “up-regulation”. The “survival compared to cisplatin alone” value ([1]; 1 μM, cisplatin intoxication 48 h, FIG. 1) was “significantly increased survival”, the “effect on survival at higher doses” value ([1]; doses higher than 1 μM) was “diminished progressively” and the “protection against cisplatin induced neurotoxicity” value ([1]; in vitro model, discussion summary) was “statistically significant protection”. The “effect compared with 5 ng/ml of NGF” value [1, 11] was “greater effect”, the “potency relative to riluzole” value [1, 11] was 10 times and the “secretion of TGF into the culture medium” value (TGF) was “enhanced the secretion”. For the same compound, the “sensory nerve conduction velocity” value (Caudal nerve; day 17 (intoxication phase) and day 31 (recovery phase), 3-30 mg/kg IP) was “significant and dose-related changes”, the “severity of vincristine induced changes in sensory nerve conduction velocity” value (Caudal nerve; discussion summary) was “reduced the severity” and the “rate of recovery after the termination of vincristine therapy” value (Caudal nerve; discussion summary, SNCV and electromyographic responses) was “improved the rate of recovery”. For the same compound, the “number of myelinated nerve fibers in sciatic nerve biopsies versus vincristine alone” value (sciatic nerve) was “greater numbers of myelinated nerve fibers” and the safety in patients [9] was “proven safe”.
For `CC[C@]1(O)C[C@H]2CN(CCc3c([nH]c4ccccc34)[C@@](C(=O)OC)(c3cc4c(cc3OC)N(C=O)[C@H]3[C@@](O)(C(=O)OC)[C@H](OC(C)=O)[C@]5(CC)C=CCN6CC[C@]43[C@@H]65)C2)C1` [Vincristine, vincristine], the “body weight compared to day matched vehicle controls” value [10] was “significant reductions in body weight”.
